The pEC50 is the EC50 on a negative log10 scale, so that one unit is a factor of ten. Low readings indicate a large EC50, high ones a small EC50.

pEC50: −log10 of the molar value.

The subject of test [1] is L1236. Put plainly: Cell proliferation assay L1236. The test is classed as cell-based. The settings on record: Homo sapiens, L-1236; L1236, Hodgkin's lymphoma; method of Example 5. As for the experimental part:
(§1) MCF7 cells were seeded in multi well plates at a density optimized to give approximately 90% confluent cells at the time of harvest. Cells were incubated for 24 hours before addition of compound. Compounds were diluted in complete medium and added to the plates in duplicates. The final concentration of DMSO was maximum 0.5%. Complete medium used was DMEM with GlutaMAX containing 10% FBS and pen/strep.
(§2) 120 hours after addition of compounds, the plates were harvested and analyzed by ATPlite 1 Step (Perkin Elmer, cat no 6016739) according to the manufactures recommendation.
(§3) The assays were performed by the method of Example 5 by seeding the relevant cell line at a density optimized to give approximately 90% confluent cells at the time of harvest.

Test [2] has as its system MDA MB 231. Put plainly: Cell proliferation assay MDA MB 231. The settings on record: Homo sapiens; MDA MB 231, Breast carcinoma; method of Example 5. The test is classed as cell-based. The method, then:
as §1, §2, §3

Test [3] deals with NCIH929. Briefly: Cell proliferation assay NCIH929. The test is classed as cell-based. The following applies: Homo sapiens, NCI-H929; NCIH929, Myeloma; method of Example 5. As for the experimental part:
as §1, §2, §3

Test [4] relates to MM1S. Put plainly: Cell proliferation assay MM1S. The test is classed as cell-based. The following applies: Homo sapiens, MM1.S, Myeloma, method of Example 5. The method, then:
as §1, §2, §3

Test [5] deals with KMS 12 BM. Put plainly: Cell proliferation assay KMS 12 BM. The test is classed as cell-based. The settings on record: Homo sapiens, Myeloma, method of Example 5. As for the experimental part: as §1, §2, §3
Test [6] deals with OPM2. Briefly: Cell proliferation assay OPM2. The following applies: Homo sapiens, OPM-2; OPM2, Myeloma; method of Example 5. The test is classed as cell-based. The method, then: as §1, §2, §3
For test [7], the system named is MOLP2. Put plainly: Cell proliferation assay MOLP2. The test is classed as cell-based. The settings on record: Homo sapiens, MOLP-2; MOLP2, Myeloma; method of Example 5. As for the experimental part:
as §1, §2, §3

In test [8] the test system is OVCAR-3. Put plainly: Cell proliferation assay OVCAR-3. The test is classed as cell-based. The following applies: Homo sapiens; OVCAR-3, Ovary; method of Example 5. As for the experimental part:
as §1, §2, §3

The subject of test [9] is L363. Put plainly: Cell proliferation assay L363. The settings on record: Homo sapiens, L-363; L363, Plasma cell leukemia; method of Example 5. The test is classed as cell-based. The method, then:
as §1, §2, §3

Test [10] concerns ARPE19. Briefly: Cell proliferation assay ARPE19. The test is classed as cell-based. The settings on record: Homo sapiens, ARPE-19; ARPE19, Retinal pigmented epithelium; method of Example 5. As for the experimental part:
as §1, §2, §3

Test [11] relates to HCC1954. Briefly: Cell proliferation assay HCC1954. The settings on record: Homo sapiens; HCC1954, Breast dutal carcinoma; method of Example 5. The test is classed as cell-based. As for the experimental part:
as §1, §2, §3

For test [12], the system named is RAJI. Put plainly: Cell proliferation assay RAJI. The test is classed as cell-based. The following applies: Homo sapiens, Burkitt's lymphoma, method of Example 5. As for the experimental part:
as §1, §2, §3

Test [13] relates to EJM. Put plainly: Cell proliferation assay EJM. The test is classed as cell-based. The settings on record: Homo sapiens, Myeloma, method of Example 5. As for the experimental part:
as §1, §2, §3

Test [14] has as its system HEPG2. Briefly: Cell proliferation assay HEPG2. The test is classed as cell-based. The settings on record: Homo sapiens; HEPG2, Hepatocellular carcinoma; method of Example 5. As for the experimental part: as §1, §2, §3
Test [15] relates to MIA PACA2. Put plainly: Cell proliferation assay MIA PACA2. The test is classed as cell-based. The following applies: Homo sapiens, MIA PaCa-2; MIA PACA2, Pancreas epithelial carcinoma; method of Example 5. The method, then:
as §1, §2, §3

Test [16] deals with NALM6. Briefly: Cell proliferation assay NALM6. The test is classed as cell-based. The following applies: Homo sapiens, NALM-6; NALM6, Lymphoblastic leukemia; method of Example 5. As for the experimental part:
as §1, §2, §3

The subject of test [17] is BT474. Briefly: Cell proliferation assay BT474. The test is classed as cell-based. The following applies: Homo sapiens, BT-474; BT474, Mammary ductal carcinoma; method of Example 5. The method, then: as §1, §2, §3
In test [18] the test system is U2OS. Briefly: Cell proliferation assay U2OS. The test is classed as cell-based. The following applies: Homo sapiens, Osteosarcoma, method of Example 5. As for the experimental part:
as §1, §2, §3

The test system of test [19] is KARPAS620. Put plainly: Cell proliferation assay KARPAS620. The test is classed as cell-based. The following applies: Homo sapiens, Karpas-620; KARPAS620, Plasma cell leukemia; method of Example 5. As for the experimental part:
as §1, §2, §3

Test [20] concerns RPMI8226. Put plainly: Cell proliferation assay RPMI8226. The settings on record: Homo sapiens, RPMI-8226; RPMI8226, Myeloma; method of Example 5. The test is classed as cell-based. The method, then: as §1, §2, §3
Test [21] relates to JJN3. Briefly: Cell proliferation assay JJN3. The following applies: Homo sapiens, JJN-3; JJN3, Plasma cell leukemia; method of Example 5. The test is classed as cell-based. The method, then: as §1, §2, §3
The test system of test [22] is OPM-2 subcutaneous mouse xenograft model of multiple myeloma. Briefly: Inhibition of tumor growth in mouse xenograft model. The test is classed as in vivo, NOD/SCID mice (Mus Musculus). From the text:
Briefly, NOD/SCID mice γ-irradiated with ^60Co (200 rad) (12 animals/group) were inoculated subcutaneously with 8×10^6 OPM-2 cells assisted with Matrigel. Dosing according to the table below started when tumors reached an average size of ˜100 mm^3 (day 15). Dosing continued until the average size of tumors in the vehicle group reached ˜2000 mm^3 (day 31).
Animals were 7 weeks old female NOD/SCID mice (Mus Musculus), supplied by Beijing HFK Bio-Technology Co. Ltd. (Beijing, china). Body weight was approx. 16-23 g. Before commencement of treatment, all animals were weighed and tumor volumes were measured, and mice were assigned into groups using randomized block design based upon their tumor volumes.
OPM-2 tumor cells were maintained in vitro in RPMI1640 medium supplemented with 20% fetal bovine serum at 37° C. in an atmosphere of 5% CO2 in air. The tumor cells were routinely subcultured twice weekly. The cells growing in an exponential growth phase were harvested and counted for tumor inoculation.
Tumor sizes were measured three times weekly in two dimensions using a caliper, and the volume was expressed in mm^3 using the formula: V=0.5 a×b^2 where a and b were the long and short diameters of the tumor, respectively.

In test [23] the test system is LP1. Briefly: Cell proliferation assay LP1. The test is classed as cell-based. The settings on record: Homo sapiens, LP-1; LP1, Myeloma; method of Example 5. The method, then:
as §1, §2, §3

On to `CCN(CCN(C)C)C(=O)CNCc1cc(CNC(=O)C(F)(F)F)ccn1` [Compound 25, N-[(2-{[({[2-(dimethylamino)ethyl]-(ethyl)carbamoyl}-methyl)amino]methyl}-pyrtdin-4-yl)methyl]-2,2,2-trifluoroacetamide], for which the pEC50 in test [1] was less than 5.60; in test [2] it was less than 5.60; in test [3] it was 5.60 to 6.60; in [4] it was more than 6.60; in test [5], more than 6.60; in test [6] it was 5.60 to 6.60. Moreover, the pEC50 in test [7] was 5.60 to 6.60; in test [8], less than 5.60; in test [9], less than 5.60; in test [10] it was less than 5.60; in test [11], less than 5.60; in [12] it was less than 5.60. Besides, the negative-log EC50 (pEC50) in test [13] and in test [14] was less than 5.60 throughout.
Take `C(=N/C1CC1)/c1ccnc(CNCCCN2CCCC2)c1` [Compound 42, N-{[2-({[3-(pyrrolidin-1-yl)propyl]amino}-methyl)pyridin-4-yl]methylidene}-cyclopropanamine]: the negative-log EC50 (pEC50) in test [1] was less than 5.60; in test [2], less than 5.60; in test [15], less than 5.60; in test [16], more than 6.60; in [6], less than 5.60; in test [10] it was less than 5.60. The pEC50 is 5.60 to 6.60 in [17]; less than 5.60 in [18]; less than 5.60 in test [12]; less than 5.60 in test [19]; less than 5.60 in test [20]; less than 5.60 in test [14].
Regarding `CCN(CC)CCCCNCc1cc(/C=N/CCO)ccn1` [Compound 61, 2-[{[2-({[4-(diethylamino)-butyl]amino}-methyl)pyridin-4-yl]methylidene}-amino]ethan-1-ol], the pEC50 in test [3], in test [15], in test [21], in [23], in test [9] and in test [10] was less than 5.60 throughout. The pEC50 in test [17] was more than 6.60; in [12], less than 5.60; in test [19], more than 6.60; in test [13] it was less than 5.60; in [20] it was less than 5.60; in [14] it was less than 5.60. In addition, the “Tumor Volume” value is 101 ± 12 mm^3 in test [22] (BID × 14 i.p. 1 mg/kg, day 15 after inoculation (start of dosing)); 249 ± 32 mm^3 in test [22] (BID × 14 i.p. 1 mg/kg, day 17 after inoculation); 320 ± 45 mm^3 in test [22] (BID × 14 i.p. 1 mg/kg, day 19 after inoculation); 577 ± 85 mm^3 in test [22] (BID × 14 i.p. 1 mg/kg, day 21 after inoculation); 951 ± 124 mm^3 in test [22] (BID × 14 i.p. 1 mg/kg, day 24 after inoculation); 1259 ± 169 mm^3 in test [22] (BID × 14 i.p. 1 mg/kg, day 26 after inoculation). Further, the “Tumor Volume” value in [22] (BID × 14 i.p. 1 mg/kg, day 28 after inoculation) was found to be 1800 ± 202 mm^3; in test [22] (BID × 14 i.p. 1 mg/kg, day 31 after inoculation), 2864 ± 334 mm^3; in [22] (BID × 14 i.p. 10 mg/kg, day 15 after inoculation (start of dosing)), 101 ± 11 mm^3; in test [22] (BID × 14 i.p. 10 mg/kg, day 17 after inoculation), 198 ± 28 mm^3; in test [22] (BID × 14 i.p. 10 mg/kg, day 19 after inoculation), 276 ± 44 mm^3; in [22] (BID × 14 i.p. 10 mg/kg, day 21 after inoculation), 519 ± 67 mm^3. Also, the “Tumor Volume” value in test [22] (BID × 14 i.p. 10 mg/kg, day 24 after inoculation) is on record as 694 ± 92 mm^3; in test [22] (BID × 14 i.p. 10 mg/kg, day 26 after inoculation), 928 ± 136 mm^3; in [22] (BID × 14 i.p. 10 mg/kg, day 28 after inoculation), 1289 ± 178 mm^3; in [22] (BID × 14 i.p. 10 mg/kg, day 31 after inoculation) it was 1996 ± 302 mm^3; in [22] (BID × 14 i.p. 20 mg/kg, day 15 after inoculation (start of dosing)), 101 ± 12 mm^3; in test [22] (BID × 14 i.p. 20 mg/kg, day 17 after inoculation), 188 ± 25 mm^3. For the same compound, the “Tumor Volume” value in [22] (BID × 14 i.p. 20 mg/kg, day 19 after inoculation) was 292 ± 50 mm^3; in [22] (BID × 14 i.p. 20 mg/kg, day 21 after inoculation) it was 440 ± 77 mm^3; in test [22] (BID × 14 i.p. 20 mg/kg, day 24 after inoculation) it was 766 ± 143 mm^3; in [22] (BID × 14 i.p. 20 mg/kg, day 26 after inoculation), 1029 ± 196 mm^3; in test [22] (BID × 14 i.p. 20 mg/kg, day 28 after inoculation), 1298 ± 236 mm^3; in test [22] (BID × 14 i.p. 20 mg/kg, day 31 after inoculation) it was 1573 ± 261 mm^3.
For `CCN(CCN(C)C)C(=O)CNCc1cc(C2OCC(Cc3ccccc3)CN2C(=O)C(F)(F)F)ccn1` (stereo not drawn) [Compound 90, 2-[({4-[5-benzyl-3-(trifluoroacetyl)-1,3-oxazinan-2-yl]pyridin-2-yl}methyl)amino]-N-[2-(dimethylamino)-ethyl]-N-ethylacetamide], the pEC50 in [12] was less than 5.60; in test [19], more than 6.60; in [20], 5.60 to 6.60; in test [14] it was less than 5.60.
`CCN(CC)CCCCNCc1cc(C=O)ccn1` [Compound 107, 2-({[4-(diethylamino)-butyl]amino}-methyl)pyridine-4-carbaldehyde]: the pEC50 was less than 5.60 in test [2]; less than 5.60 in [15]; more than 6.60 in test [16]; 5.60 to 6.60 in [6]; less than 5.60 in [7]; less than 5.60 in test [10]. Also, the pEC50 in [17] was more than 6.60; in [18] it was less than 5.60; in test [20], less than 5.60.

The values are drawn from patent publication US9650339B2, “Inhibitors of histone demethylases” (Gilead Sciences, Inc., priority 2013, dated 2017).
